Measurements reported in article PMC3429506, “Screening for Novel LRRK2 Inhibitors Using a High-Throughput TR-FRET Cellular Assay for LRRK2 Ser935 Phosphorylation” (PLoS ONE, 2012).

Key:
[1] = tested on: LRRK2 Ser935 phosphorylation; assay: TR-FRET cellular assay for LRRK2 Ser935 phosphorylation (cell background not given); assay type: cell-based, human; settings: result in words
Method: Transduced cells in the 384-well assay plate were incubated with indicated inhibitors (5X, 5 µL/well) for 60 to 90 minutes. During this time, 6 X lysis buffer (Life Technologies) was supplemented with 30 nM Tb-labeled anti-LRRK2 pSer935 antibody and both protease and phosphatase inhibitor cocktails (Sigma). The complete 6 X lysis buffer was added to each well (5 µL/well) and the plates were incubated at room temperature in the dark for 2 hours. The plate was then read on an EnVision® multilabel plate reader (PerkinElmer, Waltham, MA) with excitation at 340 nm and emission 520 nm and 495 nm. […]. A sigmoidal dose-response equation with varying slope was used to fit the data and generate IC50 values. […]. The IC50 values reported in Table 1 are the averaged numbers from three independent experiments.

LRRK2 wild-type [2] = biological target: T1, LRRK2 wild-type (Homo sapiens, UniProt Q5S007); assay: TR-FRET cellular assay for LRRK2 Ser935 phosphorylation, U-2 OS cells, BacMam LRRK2-GFP wild-type; assay type: cell-based; parameters: This high-throughput assay utilizes cells expressing full-length human LRRK2 with a C-terminal GFP tag (LRRK2-GFP); host or cells: U-2 OS cells transduced with BacMam; settings: WT, +/- SD, three independent experiments, * = partial inhibition, read-out: IC50, TR-FRET cell-based assay for Ser935 phosphorylation of LRRK2
T1 sequence (Q5S007 whole entry): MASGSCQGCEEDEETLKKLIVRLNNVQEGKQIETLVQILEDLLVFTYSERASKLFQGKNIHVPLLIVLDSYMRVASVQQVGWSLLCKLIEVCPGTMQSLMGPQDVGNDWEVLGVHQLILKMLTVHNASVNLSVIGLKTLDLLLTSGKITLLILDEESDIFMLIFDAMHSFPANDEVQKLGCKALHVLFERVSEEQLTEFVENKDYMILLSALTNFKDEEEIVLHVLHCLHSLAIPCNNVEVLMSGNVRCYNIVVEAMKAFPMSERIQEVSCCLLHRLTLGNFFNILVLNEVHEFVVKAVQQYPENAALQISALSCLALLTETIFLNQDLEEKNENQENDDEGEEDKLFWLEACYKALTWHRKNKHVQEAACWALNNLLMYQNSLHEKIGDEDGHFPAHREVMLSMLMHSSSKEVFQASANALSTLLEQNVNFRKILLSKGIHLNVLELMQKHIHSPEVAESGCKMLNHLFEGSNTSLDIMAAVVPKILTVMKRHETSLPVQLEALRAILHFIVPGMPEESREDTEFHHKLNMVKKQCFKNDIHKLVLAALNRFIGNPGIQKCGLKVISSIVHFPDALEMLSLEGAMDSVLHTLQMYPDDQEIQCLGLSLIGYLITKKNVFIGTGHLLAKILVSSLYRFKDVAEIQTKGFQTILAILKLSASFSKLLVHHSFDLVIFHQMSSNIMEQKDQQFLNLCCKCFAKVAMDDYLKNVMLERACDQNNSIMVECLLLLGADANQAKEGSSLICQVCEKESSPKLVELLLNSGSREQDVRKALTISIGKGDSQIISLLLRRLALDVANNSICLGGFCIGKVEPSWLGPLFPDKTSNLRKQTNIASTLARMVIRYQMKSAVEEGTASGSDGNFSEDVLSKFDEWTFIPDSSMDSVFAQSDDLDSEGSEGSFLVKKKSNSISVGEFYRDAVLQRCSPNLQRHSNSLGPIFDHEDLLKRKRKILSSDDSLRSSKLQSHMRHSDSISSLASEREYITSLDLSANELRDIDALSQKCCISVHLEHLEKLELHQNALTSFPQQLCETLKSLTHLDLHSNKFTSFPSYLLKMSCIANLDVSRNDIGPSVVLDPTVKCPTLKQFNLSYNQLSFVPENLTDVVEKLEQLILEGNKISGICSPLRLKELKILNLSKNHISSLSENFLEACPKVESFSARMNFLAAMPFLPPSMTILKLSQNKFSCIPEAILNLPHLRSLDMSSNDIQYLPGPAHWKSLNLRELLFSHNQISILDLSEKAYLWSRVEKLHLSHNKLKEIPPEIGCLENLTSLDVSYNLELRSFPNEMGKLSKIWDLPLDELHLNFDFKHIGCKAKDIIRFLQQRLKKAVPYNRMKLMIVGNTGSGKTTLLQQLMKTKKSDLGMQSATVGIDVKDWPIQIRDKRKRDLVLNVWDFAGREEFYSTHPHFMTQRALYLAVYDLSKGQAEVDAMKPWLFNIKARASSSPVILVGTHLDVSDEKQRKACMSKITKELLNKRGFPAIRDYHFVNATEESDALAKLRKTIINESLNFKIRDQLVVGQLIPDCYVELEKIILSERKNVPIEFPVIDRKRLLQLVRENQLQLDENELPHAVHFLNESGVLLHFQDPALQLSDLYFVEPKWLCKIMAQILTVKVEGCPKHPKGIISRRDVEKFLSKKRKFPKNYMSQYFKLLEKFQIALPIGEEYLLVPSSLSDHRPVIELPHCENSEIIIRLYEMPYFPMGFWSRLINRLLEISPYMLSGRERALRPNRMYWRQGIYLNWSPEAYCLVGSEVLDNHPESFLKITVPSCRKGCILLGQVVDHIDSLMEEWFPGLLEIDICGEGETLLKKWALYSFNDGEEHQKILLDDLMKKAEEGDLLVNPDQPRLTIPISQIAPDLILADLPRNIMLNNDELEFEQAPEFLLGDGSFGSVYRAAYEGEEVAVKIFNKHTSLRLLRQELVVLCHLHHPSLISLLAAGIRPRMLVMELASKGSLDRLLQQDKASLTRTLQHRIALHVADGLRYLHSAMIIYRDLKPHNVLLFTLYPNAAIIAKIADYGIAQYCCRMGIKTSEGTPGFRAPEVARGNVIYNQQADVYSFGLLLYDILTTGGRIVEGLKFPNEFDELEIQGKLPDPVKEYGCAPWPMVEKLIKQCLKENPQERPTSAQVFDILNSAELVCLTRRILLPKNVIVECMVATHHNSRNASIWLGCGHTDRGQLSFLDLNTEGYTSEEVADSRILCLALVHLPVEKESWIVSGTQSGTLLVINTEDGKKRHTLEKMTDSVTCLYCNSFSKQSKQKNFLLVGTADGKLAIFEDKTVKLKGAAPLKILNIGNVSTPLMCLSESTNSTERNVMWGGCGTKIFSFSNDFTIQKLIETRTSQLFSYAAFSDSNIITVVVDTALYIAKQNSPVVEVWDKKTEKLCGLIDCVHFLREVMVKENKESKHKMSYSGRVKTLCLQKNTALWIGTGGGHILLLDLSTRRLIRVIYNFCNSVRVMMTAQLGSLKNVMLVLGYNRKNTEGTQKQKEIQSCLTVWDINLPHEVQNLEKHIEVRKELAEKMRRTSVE
Method: (§1) U-2 OS cells are maintained in growth medium (McCoy’s 5A supplemented with 10% dialyzed FBS (dFBS), 10 mM HEPES, 0.1 mM NEAA, 1 mM Sodium Pyruvate, and 100 U/mL Penicillin/100 µg/mL Streptomycin). HEK293T cells are maintained in DMEM with 10% dFBS, 10 mM HEPES, 0.1 mM NEAA and 100 U/mL Penicillin/100 µg/mL Streptomycin. SH-SY5Y cells are maintained in DMEM/F-12 medium supplemented with 10% dFBS and 100 U/mL Penicillin/100 µg/mL Streptomycin. […] GIBCO® human neural stem cells (hNSCs) were propagated as an adherent culture in StemPro® NSC SFM according to the manufacturer’s recommended protocol (Life Technologies). For BacMam transduction of U-2 OS and HEK293T, cells were harvested, mixed with various amounts of BacMam LRRK2-GFP reagent (v/v) and plated onto 6-well plates. […] Cells were assayed in 384-well format (∼20,000 cells/well) 48 hours post-transduction as above.
(§2) Transduced cells in the 384-well assay plate were incubated with indicated inhibitors (5X, 5 µL/well) for 60 to 90 minutes. During this time, 6 X lysis buffer (Life Technologies) was supplemented with 30 nM Tb-labeled anti-LRRK2 pSer935 antibody and both protease and phosphatase inhibitor cocktails (Sigma). The complete 6 X lysis buffer was added to each well (5 µL/well) and the plates were incubated at room temperature in the dark for 2 hours. […] A sigmoidal dose-response equation with varying slope was used to fit the data and generate IC50 values. Z′-factor values were calculated as: Z′-factor = 1 - [(3 × stdevno virus +3 × stdevmaxvirus)/(avgmaxvirus – avgno-virus)]. The IC50 values reported in Table 1 are the averaged numbers from three independent experiments.

LRRK2 G2019S [3] = biological target: T2, LRRK2 G2019S (Homo sapiens, UniProt Q5S007, G2019S); assay: TR-FRET cellular assay for LRRK2 Ser935 phosphorylation, U-2 OS cells, BacMam LRRK2-GFP G2019S; assay type: cell-based; parameters: This high-throughput assay utilizes cells expressing full-length human LRRK2 with a C-terminal GFP tag (LRRK2-GFP); host or cells: U-2 OS, SH-SY5Y, HEK293T cells or human neural stem cells transduced with BacMam; settings: G2019S, +/- SD, three independent experiments, * = partial inhibition, read-out: IC50, TR-FRET cell-based assay for Ser935 phosphorylation of LRRK2
T2 sequence (Q5S007 whole entry G2019S): as the sequence (Q5S007 whole entry) above, with G2019S counted along it
Method: as §1, §2

LRRK2 wild-type [4] = biological target: T1, LRRK2 wild-type; assay: TR-FRET cellular assay for LRRK2 Ser935 phosphorylation, SH-SY5Y cells, BacMam LRRK2-GFP wild-type; assay type: cell-based; parameters: This high-throughput assay utilizes cells expressing full-length human LRRK2 with a C-terminal GFP tag (LRRK2-GFP); host or cells: SH-SY5Y cells transduced with BacMam; settings: WT, +/- SD, three independent experiments, * = partial inhibition, read-out: IC50, TR-FRET cell-based assay for Ser935 phosphorylation of LRRK2
Method: as §1, §2

LRRK2 G2019S [5] = biological target: T2, LRRK2 G2019S; assay: TR-FRET cellular assay for LRRK2 Ser935 phosphorylation, SH-SY5Y cells, BacMam LRRK2-GFP G2019S (incl. Tocriscreen Mini library screen and follow-up); assay type: cell-based; parameters: This high-throughput assay utilizes cells expressing full-length human LRRK2 with a C-terminal GFP tag (LRRK2-GFP); host or cells: SH-SY5Y cells transduced with BacMam; settings: for IC50: three independent experiments; for %Inhibition Initial screen: Tocriscreen Mini library screen, 20 µM, relative to LRRK2-IN-1 control; for Cellular TR-FRET Assay Max % Inhibition: 90 min
Method: as §1, §2
40 nL of 10 mM Tocris library compounds in DMSO were dispensed into each well of the assay plate by the ECHO system. Equal volumes of DMSO were dispensed into the control wells. Cells were incubated with compounds for 90 to 120 min prior to cell lysis and detection as described above. The percent inhibition is calculated as: [(average emission ratios of DMSO control wells – average emission ratios of compound wells)/(average emission ratios of DMSO control wells – average emission ratios of LRRK2-IN-1 treated wells)] * 100. For the dose-response follow-up studies, fresh compound DMSO stock solutions were prepared from powder. […] Z′-factor value was calculated as: Z′-factor = 1 - [(3 × stdevLRRK2-IN-1+3 × stdevDMSO)/(avgDMSO – avgLRRK2-IN-1)]. The IC50 values reported in Table 2 are the averaged numbers from three independent experiments for both cellular and biochemical TR-FRET assays and one representative result of two independent experiments for the cytotoxicity assay.

LRRK2 G2019S [6] = biological target: T2, LRRK2 G2019S; assay: In vitro biochemical LRRK2 TR-FRET activity assay; settings: for IC50: LRRK2 G2019S, ATP 134 µM (Km,app), LRRKtide substrate, three independent experiments, read-out: Biochemical LRRK2 assay IC50 +/- SD
Method: The Biochemical LRRK2 TR-FRET activity assay was performed according to the manufacture recommended assay protocol (Life Technologies). […] After incubation at room temperature for 1 hour, the kinase reactions were stopped by addition of 10 µL of 20 mM EDTA and 4 nM Tb-anti-pERM (pLRRKtide) antibody in TR-FRET dilution buffer (Life Technologies). After a 30 minute incubation at room temperature, TR-FRET measurements were obtained on a BMG PHERAstar plate reader using LanthaScreen® filters and settings. A 16 point, 2-fold dilution series of each compound was tested in triplicate at each concentration and assays were also performed in triplicate.

[7] = tested on: SH-SY5Y cells expressing LRRK2-GFP G2019S; assay: Cytotoxicity assay (resazurin-based cell viability); settings: read-out: Cytotoxicity Assay IC50; same conditions as TR-FRET follow-up; one representative of two experiments
GFP-LRRK2 G2019S = biological target: T3, GFP-LRRK2 G2019S (Homo sapiens, UniProt Q5S007, G2019S); assay: Immunoprecipitation/Western analysis of LRRK2 phosphorylation at Ser910, Ser935, Ser955, Ser973 in HEK293 T-REx GFP-LRRK2 G2019S cells; assay type: cell-based; settings: for effect on phosphorylation of Ser910, Ser935, Ser955 and Ser973 (IP-Western): 20 µM, 90 min, HEK293 GFP-LRRK2 G2019S, Figure 6
T3 construct: expressed in transfected cells
T3 sequence (Q5S007 whole entry G2019S): as the sequence (Q5S007 whole entry) above, with G2019S counted along it
Method: (§3) Immunoblot analysis: BacMam LRRK2-GFP transduced U-2 OS or SH-SY5Y cells (10^7 cells) were left untreated or treated with 3 µM LRRK2-IN-I for 90 min. For lysate preparation, the cells were washed once with ice-cold PBS and lysed by addition of ice-cold lysis buffer (20 mM Tris-HCl, pH 7.4, 1% NP-40, 5 mM EDTA, 5 mM NaF, 150 mM NaCl, and 1∶100 of protease and phosphatase inhibitor cocktails). The lysate was cleared of debris by centrifugation. Equal amount of total protein was loaded onto each lane for SDS-PAGE (3–8% Tris Acetate). The proteins were transferred onto nitrocellulose membrane using the iBLOT® dry blotting system (Life Technologies) according to manufacturer’s protocol. The membranes were blocked and incubated with a primary antibody against LRRK2 (Cell Signaling Technologies), followed by incubation with alkaline phosphatase-conjugated secondary antibody (WesternBreeze® chromogenic Kit, Life Technologies). The blot was developed by using the chromogenic BCIP/NBT substrate (WesternBreeze® chromogenic Kit, Life Technologies). […] Two days post induction, cells were treated for 90 minutes in the presence of 20 µM of compound or DMSO vehicle control. Cells were rapidly lysed in ice cold lysis buffer 50 mM Tris/HCl, pH 7.5, 1 mM EGTA, 1 mM EDTA, […] 1 mM sodium orthovanadate, 10 mM sodium beta-glycerolphosphate, 50 mM NaF, 5 mM sodium pyrophosphate, 0.27 M sucrose, 1 mM benzamidine and 2 mM phenylmethanesulphonylfluoride (PMSF) and one tablet each complete protease inhibitor and PhosSTOP phosphatase inhibitor (Roche) and was supplemented with 1% (v/v) Triton X-100. GFP-LRRK2 was immunoprecipitated with GFP nanotrap beads (ChromoTek). Immunecomplexes were washed twice with lysis buffer supplemented with 300 mM NaCl and once with Buffer A (50 mM Tris/HCl, pH 7.5, 50 mM NaCl, 0.1 mM EGTA and 0.1% (v/v) 2-mercaptoethanol, and 0.27 M sucrose).

LRRK2 A2016T/G2019S = biological target: T4, LRRK2 A2016T/G2019S (Homo sapiens, UniProt Q5S007, A2016T/G2019S); assay: Immunoprecipitation/Western analysis of LRRK2 phosphorylation in T-REx HEK293 cells expressing inhibitor desensitizing mutant; assay type: cell-based; settings: for effect of desensitizing mutation A2016T/G2019S on compound-induced dephosphorylation (IP-Western): 20 µM, Figure 6 IRM
T4 construct: expressed in transfected cells
T4 sequence (Q5S007 whole entry A2016T/G2019S): as the sequence (Q5S007 whole entry) above, with A2016T, G2019S counted along it
Method: as §3

[8] = dose-response follow-up, SH-SY5Y G2019S
[9] = dose-response follow-up, SH-SY5Y G2019S, read-out: Cellular TR-FRET Assay IC50 +/-SD

| Structure (SMILES) | effect on the phosphorylation of Ser935 in the TR-FRET cellular assay [1] | IC50 (LRRK2 wild-type [2]) [µM] | IC50 (LRRK2 G2019S [3]) [µM] | IC50 (LRRK2 wild-type [4]) [µM] | IC50 (LRRK2 G2019S [5]; SH-SY5Y, G2019S, +/- SD, * = partial inhibition, read-out: IC50, TR-FRET cell-based assay for Ser935 phosphorylation of LRRK2) [µM] | IC50 (LRRK2 G2019S [6]) [µM] | effect on LRRK2 activity in vitro (LRRK2 G2019S [6]; result in words) | IC50 [7] [µM] | effect on phosphorylation of Ser910, Ser935, Ser955 and Ser973 (IP-Western) (GFP-LRRK2 G2019S) | LRRK2 phosphorylation remaining, % of untreated G2019S (GFP-LRRK2 G2019S; 293 cells, LRRK2 G2019S) [%] | effect of desensitizing mutation A2016T/G2019S on compound-induced dephosphorylation (IP-Western) (LRRK2 A2016T/G2019S) | LRRK2 phosphorylation remaining, % of untreated G2019S (LRRK2 A2016T/G2019S; 293 cells, LRRK2 G2019S/A2016T) [%] | %Inhibition Initial screen (LRRK2 G2019S [5]; SH-SY5Y G2019S) [%] | Cellular TR-FRET Assay Max % Inhibition (LRRK2 G2019S [5]; [8]) [%] | IC50 (LRRK2 G2019S [5]; [9]) [µM] |
| --- | --- | --- | --- | --- | --- | --- | --- | --- | --- | --- | --- | --- | --- | --- | --- |
| O=S(=O)(NCCNC/C=C/c1ccc(Br)cc1)c1cccc2cnccc12 [H-89] | no effect | > 20 | > 20 | > 20 | > 20 | – | – | – | – | – | – | – | – | – | – |
| Cc1ccc(S(=O)(=O)/C=C/C#N)cc1 [Bay 11-7821] | – | – | – | – | – | > 100 | did not repress LRRK2 activity in vitro | 20 | moderately reduced phosphorylation of all four residues | 50 | did not appear to be changed | 50 | 85.5 | 94 | 4 |
| Cn1cc(/C=C2\C(=O)Nc3cccnc32)c2ccccc21 [GW 441756] | – | – | – | – | – | 0.32 | – | > 20 | inhibited phosphorylation of Ser910, Ser935, Ser955 and Ser973 | – | rescued phosphorylation | – | 69.7 | 72 | 2.2 |
